These results are taken from publication PMC7612645 (2021).

The subject of the assay is US (RNA, single strand) UUUUUACCUAUCUCUUUUUCUCU
The assay can be described thus: SPR. The conditions noted are these: 250 mM NaCl; 20 mM HEPES pH 7.5, 2% DMSO, 0.1% Tween20, 37 °C; trace shown at 40 nM compound.

As to `Cc1nc2nc(CN)nn2c(C)c1CCC(=O)Nc1ccc(F)c(Cl)c1`, the binding result is on record as “no”.
